In PubChem BioAssay (NCI):
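Compound exposure: 48 hours, 5 concentrations, 96-well plates. At the GI50, growth is halved. Definition used: TGI = concentration required for complete inhibition of growth.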

Columns and labels:
Assay in all cases: NCI tumour cell line growth inhibition, 48 h
SK-MEL-2 melanoma = tested on: SK-MEL-2 melanoma
SNB-75 CNS = tested on: SNB-75 CNS
SF-295 CNS = tested on: SF-295 CNS
NCI/ADR-RES ovarian = tested on: NCI/ADR-RES ovarian
RXF 393 renal = tested on: RXF 393 renal
UACC-62 melanoma = tested on: UACC-62 melanoma
HCC-2998 colon = tested on: HCC-2998 colon
CAKI-1 renal = tested on: CAKI-1 renal
A549 NSCLC = tested on: A549 NSCLC
SK-MEL-28 melanoma = tested on: SK-MEL-28 melanoma

Compound	GI50 (SK-MEL-2 melanoma) [nM]	TGI (SK-MEL-2 melanoma) [nM]	GI50 (SNB-75 CNS) [nM]	TGI (SNB-75 CNS) [nM]	GI50 (SF-295 CNS) [nM]	TGI (SF-295 CNS) [nM]	GI50 (NCI/ADR-RES ovarian) [nM]	TGI (NCI/ADR-RES ovarian) [nM]	GI50 (RXF 393 renal) [nM]	TGI (RXF 393 renal) [nM]	GI50 (UACC-62 melanoma) [nM]	TGI (UACC-62 melanoma) [nM]	GI50 (HCC-2998 colon) [nM]	TGI (HCC-2998 colon) [nM]	GI50 (CAKI-1 renal) [nM]	TGI (CAKI-1 renal) [nM]	GI50 (A549 NSCLC) [nM]	TGI (A549 NSCLC) [nM]	GI50 (SK-MEL-28 melanoma) [nM]	TGI (SK-MEL-28 melanoma) [nM]
COc1ccc(NC(=O)n2nc(/C=C\c3ccc(O)c(OC)c3)cc2/C=C\c2ccc(O)c(OC)c2)cc1	3230	18100	2350	16300	6250	53200	4280	> 100000	3020	8870	2140	6910	5780	> 100000	3600	> 100000	5500	97900	3520	92700
N=c1ccc2nc3c(cc(N)c4ccccc43)oc-2c1	407	1610	191	654	199	599	223	1090	710	2320	197	539	380	1310	444	2320	295	1050	1190	2540
COc1cc(/C=C2\CN(C(=O)CCN3CCC(=NO)CC3)C/C(=C\c3cc(OC)c(OC)c(OC)c3)C2=O)cc(OC)c1OC	1250	4140	425	2000	656	1670	2710	> 100000	354	999	182	411	340	724	837	2340	1150	5820	279	766
CNCCNc1nc2ccccc2c2c(=O)c3cc(OC)ccc3sc12	1940	3830	1280	2580	1820	3360	1680	3480	1390	2700	1690	3130	1470	2900	1500	2970	1710	3410	1840	3340
